Where two headings read alike, the source gives them in different places.
Experiments:
[1] = target: T1, human Arginine Vasopressin Receptor 1a (AVPR1a) (Homo sapiens, UniProt P37288); test: Vasopressin V1a receptor antagonist assay (FLIPR calcium, CHO-AVPR1a cells); type: cell-based
T1 construct: expressed in transfected cells; host or cells: CHO (CHO-AVPR1a, kept under G418 selection)
In short: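 CHO cells expressing human AVPR1a were loaded with Calcium-6 dye and preincubated with compound for 15 min at 37° C. Cells were then challenged with AVP at its daily-determined EC80, and FLIPR fluorescence was read. Compounds were tested in duplicate as 10-point 1:3 dilutions from a top final concentration of 3 μM.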

[2] = target: T2, human Oxytocin Receptor (hOTR) (Homo sapiens, UniProt P30559); test: Oxytocin receptor (OTR) antagonist assay (FLIPR calcium, CHEM-1-hOTR cells); type: cell-based
T2 construct: host or cells: CHEM-1 (ready-to-assay frozen cells)
T2 sequence (P30559 1-389): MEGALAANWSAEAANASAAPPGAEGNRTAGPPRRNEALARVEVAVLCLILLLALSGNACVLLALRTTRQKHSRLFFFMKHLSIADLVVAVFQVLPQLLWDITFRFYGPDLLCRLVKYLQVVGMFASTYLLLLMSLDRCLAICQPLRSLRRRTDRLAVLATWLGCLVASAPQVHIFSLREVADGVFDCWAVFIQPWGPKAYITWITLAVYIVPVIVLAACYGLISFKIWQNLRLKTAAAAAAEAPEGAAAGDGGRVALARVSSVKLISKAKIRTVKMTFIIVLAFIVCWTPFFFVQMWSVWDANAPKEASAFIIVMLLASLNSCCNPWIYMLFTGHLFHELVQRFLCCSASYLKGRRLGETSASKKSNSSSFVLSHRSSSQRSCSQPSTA
Method: This assay was performed in CHEM-1 cells expressing the human Oxytocin Receptor (hOTR) to determine the inhibitory effect of the compounds of the invention on the human Oxytocin receptor. Oxytocin evokes an increase in intracellular calcium in CHEM-1-hOTR cells which is measured in a fluorescence assay on the FLIPR^TETRA using calcium sensitive dyes. Test compounds were assessed for their ability to affect the magnitude of the response to oxytocin, with antagonists showing a concentration-dependent reduction in the oxytocin-mediated fluorescence.
CHEM-1-hOTR ready was used to assay frozen cells (Eurofins #HTS09ORTA) which are supplied with a proprietary Media Component.
Day 1 of the assay: Cells were thawed in a 37° C. water bath and diluted with the supplied Media Component to a final volume of 10 ml. The cell suspension was centrifuged at 1000 rpm for 3 min at room temperature and the supernatant was discarded. The cell pellet was resuspended in Media Component (10.5 ml) and the cells (25 μL) were dispensed into a poly-D-lysine coated black, clear bottomed, 384-well plate. The plates were incubated overnight at 37° C., 5% CO2.
Day 2: At the start of each assay day the potency of oxytocin was assessed and an EC80 concentration was determined for subsequent compound profiling. Assays were performed using a two-step addition protocol on the FLIPR^TETRA; first addition of 5 μl of control or test compound at 10× final in assay buffer with 15 min incubation at 37° C., 5% CO2 followed by 10 μl of oxytocin at 6× final concentration in assay buffer. Changes in fluorescence were monitored for 3 min after both additions on the FLIPR^TETRA using 470-495 nm excitation and 515-575 nm emission wavelengths. The assay buffer consisted of HBSS (+Ca/+Mg) supplemented with 20 mM HEPES, and for the preparation of the oxytocin agonist only, 0.1% w/v bovine serum albumin. The assay was initiated by the removal of growth media from the cells and replaced with 45 μl of Calcium-6 dye (Molecular Devices) prepared at 1× in assay buffer. Cells were loaded with dye for 60-90 min at 37° C., 5% CO2 before initiation of the FLIPR^TETRA protocol. […] For compound profiling, test compounds were first serially diluted in DMSO (10-point curve, 1:3 dilutions) then diluted 33.3-fold in assay buffer prior to addition to the dye loaded cells on the FLIPR^TETRA. At the end of the incubation period 10 μl of oxytocin in assay buffer containing 0.1% BSA was added at the previously determined EC80 concentration.
In-plate controls for the assay included a L-368,899 concentration-response curve as the reference OTR antagonist and an oxytocin concentration-response curve to confirm the reproducibility of the EC80 used for the compound challenge.

[3] = target: T3, MDR1 (P-glycoprotein) (Homo sapiens, UniProt P08183); test: MDR1-MDCK permeability and efflux assay (Papp, efflux ratio, effective efflux ratio); type: in vitro ADME; settings: dog; for Papp A→B at 1 h, 10 μM: pH 7.4, read-out: Papp AB MDR1
T3 construct: host or cells: MDCK (MDR1-MDCK; wild-type MDCK as comparator)
Method: (§1) The MDR1-MDCK effective efflux assay was performed as described in the BioFocus Standard Operating Procedure, ADME-SOP-56. Both wild-type (WT) and MDR1-MDCK cells (Solvo Biotechnology) were seeded onto 24-well Transwell plates at 2.35×10^5 cells per well and used in confluent monolayers after a 3 day culture at 37° C. under 5% CO2. For both cell types, test and control compounds (propranolol, vinblastine) were added (10 μM, 0.1% DMSO final, n=2) to donor compartments of the Transwell plate assembly in assay buffer (Hanks balanced salt solution supplemented with 25 mM HEPES, adjusted to pH 7.4) for both apical to basolateral (A>B) and basolateral to apical (B>A) measurements. Incubations were performed at 37° C., with samples removed from both donor and acceptor chambers at T=0 and 1 hour and compound analysed by mass spectrometry (LC-MS/MS) including an analytical internal standard.
(§2) Apparent permeability (Papp) values were determined from the relationship: Papp=[CompoundAcceptor T=end]×V Acceptor/([Compound Donor T=0]×V Donor)/incubation time×V Donor/Area×60×10^−6 cm/s
(§3) In this equation, V is the volume of each Transwell compartment (apical 125 μL, basolateral 600 μL), and concentrations are the relative MS responses for compound (normalized to internal standard) in the donor chamber before incubation and acceptor chamber at the end of the incubation, and Area is the area of cells exposed for drug transfer (0.33 cm^2).
(§4) Efflux ratios (Papp B>A/Papp A>B) were calculated for each compound from the mean Papp values in each direction for both wild-type and MDR1-MDCK cells.
(§5) In order to confirm the involvement of MDR1 in any efflux seen, an “effective efflux ratio” (EER) was calculated by comparing compound efflux ratios (ER) in the two cell types by the following equation: EER=ER(MDR1-MDCK)/ER(wild-type MDCK)
(§6) This ratio illustrates the effect of the over-expressed MDR1 normalised for the background movement of compound through the wild-type cells.
(§7) Lucifer Yellow (LY) was added to the apical buffer in all wells to assess viability of the cell layer. […] Recoveries<50% indicates compound solubility, stability or binding issues, thereby reducing the reliability of a result.
(§8) The inherent ability of a potential drug molecule to penetrate the blood brain barrier and avoid efflux by transporters expressed in the brain, can be roughly correlated with the Papp(A-B) and the efflux ratio (as defined above), respectively. A potential drug molecule with an apparent permeability<7 (10^−6 cm/sec) has low permeability (+), >7 (10^−6 cm/sec) but <10 (10^−6 cm/sec) has moderate permeability (++), >10 (10^−6 cm/sec) but <20 (10^−6 cm/sec) has good permeability (+++), and >20 (10^−6 cm/sec) is highly permeable (++++). High permeability in the WT and MDCK II cell permeability assay increases the probability of blood brain barrier penetration and access to the CNS. A potential drug molecule in the above assay system with an efflux ratio or effective efflux ratio of <1 has low probability of being an efflux substrate (++++), >1 but <2 has moderate probability of being an efflux substrate (+++), >2 but <3 has has an increased probability of being an efflux substrate (++), and >3 has a high probability of being an efflux substrate (+). If a potential drug molecule is an efflux substrate, the molecule will have a low probability of reaching exposures in the brain (site of action) that will result in efficacious levels of receptor occupancy.

[4] = Wild-type MDCK permeability and efflux assay (Papp, efflux ratio); type: in vitro ADME; settings: dog, pH 7.4, wild-type MDCK cells; for efflux ratio at 1 h, 10 μM: Papp B>A/Papp A>B, read-out: ER WT (Efflux Ratio)
Method: as §1, §2, §3, §4, §5, §6, §7, §8

[5] = system: Male CD-1 mice; test: AVP induced scratching, digging and grooming behavior in mouse; type: in vivo; settings: 100 mg/kg, po; AVP i.c.v.; 15 minutes observation
Text: Administration of Arginine-Vasopressin (AVP) intracerebroventricularly (i.c.v.) elicits characteristic scratching, digging and grooming behavior in mice that can be measured readily and is sensitive to blockade with vasopressin antagonists (Meisenberg, Ann N Y Acad Sci. 525:257-69, 1988; Bleickardt et. al., Psychopharmacology (Berl). 202(4):711-8, 2009).
Male CD-1 mice (Charles River Germany) weighing 22-25 g upon the study in-life were used for this study. Animals were housed in groups of 4-5 per cage in standard temperature (22±1° C.) and light-controlled environment (lights on from 7 am to 8 pm), with ad libitum access to food and water. Prior to commencing any procedures to the mice, they were allowed to habituate in the vivarium for a minimum of 7 days. Anesthesia was induced in a plexiglass chamber for 2-3 min with 5% isoflurane and maintained through a snout mask with 1-2% isoflurane thereafter. A homeothermic blanket system with a rectal probe was used to monitor and maintain the animal's body temperature at 37.0° C.±1.5° C. during the operation. Anesthetized mice were placed in a stereotaxic apparatus and skin between the ears shaved and disinfected with povidone-iodine solution (Betadine). A 10-μl Hamilton syringe with 28-gauge needle was used for the i.c.v. injections. All animals receive identical AVP injections (3.689 μM) or sterile saline (0.9% sodium chloride solution) into the right lateral ventricle at the following coordinates: AP=+0.5 mm; ML=+1.0 mm; DV=−2.5 mm (approximately from bregma). The actual coordinates were calculated by the distance from the point in midline between the eyes and no skin incision was made. […]
Mice were observed and video-recorded for 15 minutes following AVP/saline administration and behaviors were measured (in seconds) and a cumulative time was calculated. […] Using this assay, balovaptan (100 and 300 mg/kg, po), JNJ-17308616 (30, 100 mg/kg, po) and Compound No. 1-83B (100, 300, 500 mg/kg, po) were evaluated for antagonist activity to AVP-induced scratching behaviors.

[6] = target: T4, V1a receptors (Rattus norvegicus, UniProt P30560); test: AVP induced phospho-ERK measurement in rat choroid plexus (RCP) cells; type: cell-based; settings: RCP cells stimulated with AVP, pERK1/2 to total ERK1/2 ratio
T4 construct: Rat choroid plexus (RCP) cell lines express functional V1a receptors; endogenous in cells; host or cells: rat choroid plexus (RCP) cell line, RCP P9(18)
Method: Rat choroid plexus (RCP) cell lines express functional V1a receptors measured by increased calcium concentrations in response to V1a receptor agonists (Battle et al., Biochem. Biophys. Res. Comm. 2000).
RCP P9(18) cells were seeded 30K/well, in 100 μl growth medium containing 10% FBS in polystyrene 96-well plates and incubated at 37° C., 5% CO2 and incubated overnight. The following day, the growth medium was replaced with 50 μl pre-warmed HBSS containing 20 mM HEPES and the cells were incubated at 37° C., 5% CO2 for 1.5 hrs. 1 mM AVP (Sigma V9879) was freshly prepared in distilled water in a glass vial and diluted to 3× concentrations in HBSS containing 20 mM HEPES and 0.1% BSA in glass vials and kept on ice. […] Final concentrations of AVP: 10, 100 or 1000 nM. […] Cells were lysed with 25 μl 4×CST lysis buffer containing protease and phosphatase inhibitors, PMSF and SDS and then stored at −80° C., for 48 h. The lysates were thawed, centrifuged at 2000 g for 30 min at 4° C. and 40 μl supernatants assayed for pERK1/2 (Thr202/Tyr204; Thr185/Tyr187) and total ERK1/2 using MSD kit K15107D. The MSD ECL data for the lysates were corrected for no cell blanks, then phospho-protein levels expressed as a ratio to the total ERK1/2 level. The ratios were expressed as fold-change from the vehicle-treated control at each timepoint.

[7] = MDCK-MDR1, pH 7.4, ER(MDR1-MDCK)/ER(wild-type MDCK), read-out: EER (Effective Efflux Ratio)
[8] = MDCK-MDR1, pH 7.4, Papp B>A/Papp A>B, MDR1-MDCK cells, read-out: ER MDR1 (Efflux Ratio)

T1 sequence (P37288 whole entry): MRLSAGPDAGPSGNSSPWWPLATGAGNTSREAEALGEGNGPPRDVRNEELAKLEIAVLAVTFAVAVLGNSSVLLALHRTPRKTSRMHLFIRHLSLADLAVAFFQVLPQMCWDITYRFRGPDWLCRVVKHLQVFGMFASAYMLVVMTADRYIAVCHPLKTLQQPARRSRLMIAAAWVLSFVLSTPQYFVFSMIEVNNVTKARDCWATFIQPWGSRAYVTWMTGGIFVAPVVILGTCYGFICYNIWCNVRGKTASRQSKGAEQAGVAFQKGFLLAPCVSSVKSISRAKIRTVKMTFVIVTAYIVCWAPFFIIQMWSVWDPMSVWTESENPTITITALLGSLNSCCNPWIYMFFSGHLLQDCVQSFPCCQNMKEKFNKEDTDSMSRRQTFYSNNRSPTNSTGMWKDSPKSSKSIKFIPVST
T3 sequence (P08183 whole entry): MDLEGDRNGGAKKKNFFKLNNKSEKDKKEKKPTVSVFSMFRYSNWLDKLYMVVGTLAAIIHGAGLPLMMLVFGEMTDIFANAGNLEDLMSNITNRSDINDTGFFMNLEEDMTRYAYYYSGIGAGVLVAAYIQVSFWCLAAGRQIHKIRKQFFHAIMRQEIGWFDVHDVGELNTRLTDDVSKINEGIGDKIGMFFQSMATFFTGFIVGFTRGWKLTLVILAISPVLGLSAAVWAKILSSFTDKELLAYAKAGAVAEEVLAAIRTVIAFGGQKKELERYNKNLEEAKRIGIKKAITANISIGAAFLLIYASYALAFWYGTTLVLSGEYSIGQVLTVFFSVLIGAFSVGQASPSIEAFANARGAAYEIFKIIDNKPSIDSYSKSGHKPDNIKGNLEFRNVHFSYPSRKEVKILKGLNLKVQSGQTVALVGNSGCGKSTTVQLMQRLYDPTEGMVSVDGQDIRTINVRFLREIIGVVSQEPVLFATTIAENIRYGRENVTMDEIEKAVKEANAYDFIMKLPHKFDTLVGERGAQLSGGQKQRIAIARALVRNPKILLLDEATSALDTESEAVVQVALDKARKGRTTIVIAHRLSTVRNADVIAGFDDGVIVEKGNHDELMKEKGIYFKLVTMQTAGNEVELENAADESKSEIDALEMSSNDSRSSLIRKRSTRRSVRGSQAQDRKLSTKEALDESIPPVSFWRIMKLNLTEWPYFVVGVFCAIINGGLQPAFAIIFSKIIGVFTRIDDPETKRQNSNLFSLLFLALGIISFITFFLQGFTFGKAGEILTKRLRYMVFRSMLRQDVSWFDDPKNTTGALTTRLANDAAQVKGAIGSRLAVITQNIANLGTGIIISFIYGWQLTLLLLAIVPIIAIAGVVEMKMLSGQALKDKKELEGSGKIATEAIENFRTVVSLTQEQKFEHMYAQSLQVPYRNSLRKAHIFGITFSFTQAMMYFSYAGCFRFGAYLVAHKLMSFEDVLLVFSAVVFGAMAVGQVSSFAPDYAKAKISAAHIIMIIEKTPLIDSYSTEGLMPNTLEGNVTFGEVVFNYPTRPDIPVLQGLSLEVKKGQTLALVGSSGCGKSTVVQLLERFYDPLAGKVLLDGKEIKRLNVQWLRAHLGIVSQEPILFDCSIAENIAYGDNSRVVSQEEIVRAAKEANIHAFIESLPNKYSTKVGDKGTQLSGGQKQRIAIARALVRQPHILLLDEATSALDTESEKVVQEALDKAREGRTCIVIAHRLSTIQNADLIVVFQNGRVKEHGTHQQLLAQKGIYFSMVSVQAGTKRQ
T4 sequence (P30560 whole entry): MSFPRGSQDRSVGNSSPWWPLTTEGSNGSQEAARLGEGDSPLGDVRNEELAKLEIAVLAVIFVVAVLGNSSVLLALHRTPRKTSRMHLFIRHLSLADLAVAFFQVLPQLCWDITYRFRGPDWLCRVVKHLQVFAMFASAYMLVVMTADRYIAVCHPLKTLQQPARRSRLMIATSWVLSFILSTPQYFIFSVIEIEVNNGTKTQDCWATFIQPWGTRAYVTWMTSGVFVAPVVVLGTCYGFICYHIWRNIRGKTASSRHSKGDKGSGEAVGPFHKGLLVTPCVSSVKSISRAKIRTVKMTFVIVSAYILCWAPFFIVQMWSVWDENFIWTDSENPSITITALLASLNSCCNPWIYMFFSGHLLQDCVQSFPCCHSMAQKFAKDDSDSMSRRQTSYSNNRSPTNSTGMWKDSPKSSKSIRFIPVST

CC1COc2cc(Cl)ccc2N1C(=O)N1CC2(C1)CN(c1ncccc1F)C2 (single isomer, unassigned) [1-57-B]
IC50 [1]: ≥ 1000 nM | IC50 [2]: < 100 nM

Cc1nc(N2CC3(CN(C(=O)N4c5ccc(Cl)cc5OCC4C)C3)C2)ncc1F (single isomer, unassigned) [20-7-A]
efflux ratio at 1 h, 10 μM [3, 7]: < 1 | efflux ratio at 1 h, 10 μM [3, 8]: < 1 | Papp A→B at 1 h, 10 μM ([3]; MDR1-MDCK cells): > 20 ×10⁻⁶ cm/s | IC50 [1]: ≥ 1000 nM | Papp A→B at 1 h, 10 μM [4]: > 20 ×10⁻⁶ cm/s | efflux ratio at 1 h, 10 μM [4]: < 1

Cc1cnc(N2CC3(CN(C(=O)N4c5ccc(Cl)cc5OCC4C)C3)C2)nc1 (single isomer, unassigned) [20-13-A]
IC50 [1]: ≥ 1000 nM | IC50 [2]: ≥ 1000 nM

CC1COc2cc(F)ccc2N1C(=O)N1CC2(C1)CN(c1cc(C#N)ccn1)C2 (stereo not shown) [20-3]
efflux ratio at 1 h, 10 μM [3, 7]: < 1 | efflux ratio at 1 h, 10 μM [3, 8]: 1 to 2 | Papp A→B at 1 h, 10 μM ([3]; MDR1-MDCK cells): > 20 ×10⁻⁶ cm/s | IC50 [1]: < 100 nM | Papp A→B at 1 h, 10 μM [4]: > 20 ×10⁻⁶ cm/s | efflux ratio at 1 h, 10 μM [4]: 1 to 2

CN1Cc2cc(Cl)ccc2-n2c(nnc2[C@H]2CC[C@H](Oc3ccccn3)CC2)C1 [balovaptan, reference compound]
antagonist activity to AVP-induced scratching behaviors [5]: effective | IC50 ([6]; first study): 10.9 nM | IC50 ([6]; second study): 13.6 nM
